From patent US20220009894A1, “1,2,3,4-TETRAHYDROQUINOXALINE DERIVATIVE, PREPARATION METHOD THEREFOR AND APPLICATION THEREOF” (Abbisko Therapeutics Co., Ltd., priority 2019, published 2022) come the findings set out here.

One test deals with T1, RORγt-LBD (Homo sapiens, UniProt P51449).
T1 sequence (P51449 269-508 limits assumed): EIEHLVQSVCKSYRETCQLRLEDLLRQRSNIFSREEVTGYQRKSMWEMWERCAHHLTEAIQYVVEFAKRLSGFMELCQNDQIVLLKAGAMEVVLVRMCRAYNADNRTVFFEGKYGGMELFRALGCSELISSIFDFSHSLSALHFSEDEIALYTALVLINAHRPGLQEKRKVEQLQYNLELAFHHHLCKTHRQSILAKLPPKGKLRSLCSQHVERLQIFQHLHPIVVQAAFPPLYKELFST
Nature of the test: Time-resolved fluorescence resonance energy-transfer assay (TR-FRET), co-activator peptide recruitment. To be noted: for EC50: His-RORγt-LBD 30 nM, SRC peptide 500 nM, agonistic activity, averages of one or more measurements, read-out: TR-FRET Biochemical EC50/; for TR-FRET Biochemical Amax: upper activation limit, His-RORγt-LBD, SRC peptide. On the set-up: TR-FRET Biochemical Amax: unit not given here. The class given is biochemical. The essentials:
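Eu-anti-His-labelled His-RORγt-LBD (30 nM final) recruits biotin-SRC co-activator peptide (500 nM final), detected via APC-streptavidin (5 nM) and Eu-anti-His (0.25 nM). Buffer was Tris/KCl/EDTA at pH 7.0 with 0.01% Triton X-100 and 1 mM DTT. Compounds were tested at 7 points in 5-fold dilutions. Plates were incubated overnight at 4 °C then 1 h at RT, and agonism was read as the 665/615 nm ratio.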
In general terms: In TR-FRET formats the signal depends on donor and acceptor labels being close together.

For another test, the target named is T2, RORγt (Homo sapiens, UniProt P51449).
T2 construct: The plasmid of pFN26A-RORγt-LBD and pG14.35 (Promega, Cat. No. E1370) were co-transfected into HEK 293 cells; expressed in transfected cells; host or cells: HEK 293 cells (Cat. No. GNHu18)
T2 sequence (P51449 269-508 limits assumed): T1 sequence (P51449 269-508 limits assumed)
Nature of the test: RORγt cellular reporter gene detection assay.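 As to Cellular Reporter Assay Amax: Ursolic Acid added as 5 µL of 20 µM medium per well.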 The settings on record: 24 hrs; for EC50: HEK 293 cells co-transfected with pFN26A-RORγt-LBD and pG14.35, in presence of antagonist Ursolic acid, top concentration 50 μM; for Cellular Reporter Assay Amax: upper activation limit, HEK 293 cells, in presence of antagonist Ursolic acid. It counts as cell-based. The essentials:
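HEK293 cells co-transfected with RORγt-LBD and luciferase reporter plasmids, treated with Ursolic acid antagonist plus compound in 4-fold dilutions from 50 μM for 24 h at 37° C. Firefly and Renilla luminescence read; EC50 and Amax from four-parameter fit.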

For `O=S(=O)(c1cccc(C(F)(F)F)c1)N1C[C@@H]2CN(C[C@@H](O)CO)CCN2c2ccc(-c3cc(F)cc(OC(F)F)c3)cc21` [Example 39, (R)-3-((S)-8-(3-(difluorome-thoxy)-5-fluorophenyl)-6-((3-(trifluoromethyl)phenyl)sulfonyl)-1,2,4,4a,5,6-hexahydro-3H-pyrazino[1,2-a]quinoxalin-3-yl) propane-1,2-diol], on RORγt-LBD, the EC50 was found to be 33.6 nM and the “TR-FRET Biochemical Amax” value is on record as 0.58. On RORγt, the EC50 was determined as 1240 nM and the “Cellular Reporter Assay Amax” value stood at 2.2.
Regarding `O=C(O)CN1CCN2c3ccc(-c4cc(F)cc(OC(F)F)c4)cc3N(S(=O)(=O)C3C=C(C(F)(F)F)C=NC3=O)C[C@@H]2C1` (stereo partly drawn) [Example 92, 2-((4aS)-8-(3-(difluoromethoxy)-5-fluorophenyl)-6-((2-oxo-5-(trifluoromethyl)-2,3-dihydropyridin-3-yl)sulfonyl)-1,2,4,4a,5,6-hexahydro-3H-pyrazino[1,2-a]quinoxalin-3-yl)acetic acid], the results for the EC50 at RORγt-LBD and at RORγt were 848 nM and at least 50000 nM, respectively.
Consider `CS(=O)(=O)CCOC1CCN2c3ccc(-c4cc(F)cc(OC(F)F)c4)cc3N(S(=O)(=O)c3cccc(C(F)(F)F)c3)C[C@@H]2C1` (stereo partly drawn) [Example 111, (6aS)-3-(3-(difluoromethoxy)-5-fluorophenyl)-8-((methylsulfonyl)ethoxy)-5-((3-(trifluoromethyl)phenyl)sulfonyl)-6,6a,7,8,9,10-hexahydro-5H-pyrido[1,2-a]quinoxaline], for which, on RORγt-LBD, the EC50 was 18.9 nM and the “TR-FRET Biochemical Amax” value amounted to 0.64. At RORγt, the EC50 was found to be 564 nM and the “Cellular Reporter Assay Amax” value was 3.2.
For the compound `O=S(=O)(c1cc(C(F)(F)F)cnc1OCCO)N1C[C@@H]2CNCCN2c2ccc(-c3cc(F)cc(OC(F)F)c3)cc21` [Example 87, (S)-2-((3-((8-(3-(difluoromethoxy)-5-fluorophenyl)-1,2,3,4,4a,5-hexahydro-6H-pyrazino[1,2-a]quinoxalin-6-yl)sulfonyl)-5-(trifluoromethyl)pyridin-2-yl)oxy) ethan-1-ol], the figures for the EC50 on RORγt-LBD and on RORγt were 384 nM and at least 50000 nM, respectively. Besides, the “TR-FRET Biochemical Amax” value on RORγt-LBD is given as 0.96.
As for `CC1(C)C=C(c2ccc3c(c2)N(S(=O)(=O)c2cccc(C(F)(F)F)c2)C[C@@H]2CNCCN32)CC(C)(C)O1` [Example 13, (S)-8-(2,2,6,6-tetramethyl-3,6-dihydro-2H-pyran-4-yl)-6-((3-(trifluorometh-yl)phenyl)sulfonyl)-2,3,4,4a,5,6-hexahydro-1H-pyrazino[1,2-a]quinoxaline], on RORγt-LBD, the EC50 was determined as 35.8 nM and the “TR-FRET Biochemical Amax” value is 0.74. Also, at RORγt, the EC50 turned out to be 1420 nM and the “Cellular Reporter Assay Amax” value was determined as 1.7.
Consider `O=C(O)COC1CCN2c3ccc(-c4cc(F)cc(OC(F)F)c4)cc3N(S(=O)(=O)c3cccc(C(F)(F)F)c3)C[C@@H]2C1` (stereo partly drawn) [Example 106, 2-(((6aS)-3-(3-(difluoromethoxy)-5-fluorophenyl)-5-((3-(trifluoromethyl)phenyl)sulfonyl)-6,6a,7,8,9,10-hexahydro-5H-pyrido[1,2-a]quinoxalin-8-yl)oxy)acetic acid], for which, at RORγt-LBD, the EC50 stood at 72.5 nM and the “TR-FRET Biochemical Amax” value was 0.48. Further, on RORγt, the EC50 came out at 704 nM and the “Cellular Reporter Assay Amax” value was 4.1.
Regarding `O=S(=O)(c1cccc(C(F)(F)F)c1)N1C[C@@H]2CN(C[C@H](O)CO)CCN2c2ccc(/C=C/c3c(Cl)cccc3C(F)(F)F)cc21` [Example 36, (S)-3-((S)-8-((E)-2-chloro-6-(trifluoromethyl)styryl)-6-((3-(trifluaromethyl)phenyl)sulfonyl)-1,2,4,4a,5,6-hexahydro-3H-pyrazino[1,2-a]quinoxalin-3-yl)-propane-1,2-diol], at RORγt-LBD, the EC50 was found to be 24.9 nM and the “TR-FRET Biochemical Amax” value was 1.23. For the same compound, at RORγt, the EC50 was 501 nM and the “Cellular Reporter Assay Amax” value amounted to 4.1.
Take `CC(=O)N1CCN2c3ccc(/C=C/c4c(Cl)cccc4C(F)(F)F)cc3N(S(=O)(=O)c3cccc(OC(F)(F)F)c3)C[C@@H]2C1` [Example 84, (S,E)-1-(8-(2-chloro-6-(trifluoromethyl)styryl)-6-((3-(trifluoromethoxy)phenyl)sulfonyl)-1,2,4,4a,5,6-hexahydro-3H-pyrazino[1,2-a]quinoxalin-3-yl)ethan-1-one]: on RORγt-LBD, the EC50 was found to be 207 nM and the “TR-FRET Biochemical Amax” value was 0.76. On RORγt, the EC50 was found to be 1140 nM and the “Cellular Reporter Assay Amax” value worked out at 4.7.
Regarding `N#CC1(N2CCN3c4ccc(-c5cc(F)cc(OC(F)F)c5)cc4N(S(=O)(=O)c4cccc(C(F)(F)F)c4)C[C@@H]3C2)CCC1` [Example 77, (S)-1-(8-(3-(difluoromethoxy)-5-fluorophenyl)-6-((3-(trifluoro-methyl)phenyl)sulfonyl)-1,2,4,4a,5,6-hexahydro-3H-pyra-zino[1,2-a]quinoxalin-3-yl)cyclo-butane-1-carbonitrile], on RORγt-LBD, the EC50 amounted to 18.3 nM and the “TR-FRET Biochemical Amax” value came out at 0.95. Moreover, at RORγt, the EC50 is 1470 nM and the “Cellular Reporter Assay Amax” value was determined as 3.7.
With `N#CCC(=O)N1CCN2c3ccc(-c4cc(F)cc(OC(F)F)c4)cc3N(S(=O)(=O)c3cccc(C(F)(F)F)c3)C[C@@H]2C1` [Example 28, (S)-3-(8-(3-(difluoromethoxy)-5-fluorophenyl)-6-((3-(trifluoromethyl)phenyl)sulfonyl)-1,2,4,4a,5,6-hexahydro-3H-pyrazino[1,2-a]quinoxalin-3-yl)-3-oxopropanenitrile], on RORγt-LBD, the EC50 is 14.7 nM and the “TR-FRET Biochemical Amax” value is listed as 0.86. For the same compound, on RORγt, the EC50 turned out to be 354 nM and the “Cellular Reporter Assay Amax” value is 2.6.
The matching figures for `COC(=O)CC[C@H]1CN(S(=O)(=O)c2cccc(C(F)(F)F)c2)c2cc(/C=C(\C)c3c(F)cccc3Cl)ccc2N1C` [Example 120, methyl (S,E)-3-(6-(2-(2-chloro-6-fluorophenyl)prop-1-en-1-yl)-1-methyl-4-((3-(trifluoromethyl)phenyl)sulfonyl)-1,2,3,4-tetrahydroquinoxalin-2-yl)propanoate]: 64.9 nM, 1.07, 157 nM and 5.7.
With `C[C@]1(O)CCN2c3ccc(-c4cc(F)cc(OC(F)F)c4)cc3N(S(=O)(=O)c3cccc(C(F)(F)F)c3)C[C@@H]2C1` [Example 108, (6aS,8S)-3-(3-(difluoromethoxy)-5-fluorophenyl)-8-methyl-5-((3-(trifluoromethyl)phenyl)sulfo-nyl)-6,6a,7,8,9,10-hexa-hydro-5H-pyrido[1,2-a]quinoxalin-8-ol], on RORγt-LBD, the EC50 is 55.4 nM and the “TR-FRET Biochemical Amax” value came to 0.99. Moreover, at RORγt, the EC50 was 1980 nM and the “Cellular Reporter Assay Amax” value stood at 4.0.
As for `CN1c2ccc(C3CC(C)(C)OC(C)(C)C3)cc2N(S(=O)(=O)c2cccc(C(F)(F)F)c2)C[C@@H]1CCC(=O)O` [Example 119, (S)-3-(1-methyl-6-(2,2,6,6-tetramethyltetrahydro-2H-pyran-4-yl)-4-((3-(trifluoromethyl)phenyl)sulfonyl)-1,2,3,4-tetrahydroquinoxalin-2-yl)propanoic acid], on RORγt-LBD, the EC50 was 31.5 nM and the “TR-FRET Biochemical Amax” value was 0.41. For the same compound, at RORγt, the EC50 worked out at 295 nM and the “Cellular Reporter Assay Amax” value came out at 1.1.
